# Earlier results as cited in PMC4741275 (Analytical Chemistry, 2016).
# System: lysosomes
structure (smiles),measurement,value
Cc1cn(-c2cc(NC(=O)c3ccc(C)c(Nc4nccc(-c5cccnc5)n4)c3)cc(C(F)(F)F)c2)cn1 [nilotinib],enrichment in lysosomes,over 1000 fold
Cc1ccc(NC(=O)c2ccc(CN3CCN(C)CC3)cc2)cc1Nc1nccc(-c2cccnc2)n1 [imatinib],enrichment in lysosomes,over 1000 fold
